The values that follow come from ChEMBL document CHEMBL1130618, “A novel and practical route to A-ring enyne synthon for 1 alpha,25-dihydroxyvitamin D3 analogs: synthesis of A-ring diastereomers of 1 alpha,25-dihydroxyvitamin D2 and 3-methyl-1,25-dihydroxyvitamin D3” (1998).

The structures appear in SMILES notation.

The species named for assay [1] is Rattus norvegicus. Put plainly: Compound was evaluated for rat serum Ca concentration. It is filed as functional.
Assay [2] has as its target T1, Vitamin D3 receptor (Bos taurus) (UniProt Q28037).
T1 sequence (whole entry): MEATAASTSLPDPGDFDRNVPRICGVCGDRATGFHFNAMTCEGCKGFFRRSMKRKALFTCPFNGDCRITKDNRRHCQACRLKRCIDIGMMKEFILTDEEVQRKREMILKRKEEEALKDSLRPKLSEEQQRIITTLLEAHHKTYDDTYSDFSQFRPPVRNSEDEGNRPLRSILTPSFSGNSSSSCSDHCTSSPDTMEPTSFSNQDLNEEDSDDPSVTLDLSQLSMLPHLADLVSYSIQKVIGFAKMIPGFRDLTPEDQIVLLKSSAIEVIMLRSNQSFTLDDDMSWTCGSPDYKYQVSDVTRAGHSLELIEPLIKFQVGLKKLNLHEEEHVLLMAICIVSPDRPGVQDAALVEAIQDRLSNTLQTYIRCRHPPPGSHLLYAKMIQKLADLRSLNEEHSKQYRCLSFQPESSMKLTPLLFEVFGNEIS
Put plainly: Binding affinity for bovine thymus Vitamin D3 receptor (VDR).

For assay [3], the system named is HL-60. Kind of assay: Effect on HL-60 cell differentiation. It is filed as functional, Homo sapiens.
In assay [4] the test system is HL-60. Kind of assay: HL-60 cell differentiation relative to 1-alpha, 25-dihydroxyvitamin D3. It is filed as functional, Homo sapiens.
Assay [5] is filed under the species Rattus norvegicus. Kind of assay: Compound was evaluated for rat serum Ca concentration in relative to 1-alpha, 25-dihydroxyvitamin D3. It is filed as functional.

In the case of `C=C1/C(=C\C=C2/CCC[C@]3(C)[C@@H]([C@H](C)CCCC(C)(C)O)CC[C@@H]23)C[C@@H](O)C[C@@H]1O` [CALCITRIOL], the Relative potency in assay [1], in assay [2] and in assay [3] was 100 in each case.

In assay [4], `C=C1/C(=C\C=C2/CCC[C@]3(C)[C@@H]([C@H](C)CCCC(C)(C)O)CC[C@@H]23)C[C@@H](O)[C@H](C)[C@H]1O` returned a Relative potency of 1.

In assay [4], `C=C1/C(=C\C=C2/CCC[C@]3(C)[C@@H]([C@H](C)CCCC(C)(C)O)CC[C@@H]23)C[C@H](O)[C@@H](C)[C@@H]1O` showed a Relative potency of 1.5.

On to `C=C1/C(=C\C=C2/CCC[C@]3(C)[C@@H]([C@H](C)CCCC(C)(C)O)CC[C@@H]23)C[C@@H](O)[C@H](C)[C@@H]1O`, for which the Relative potency in assay [4] worked out at 200; in assay [5], 400.

`C=C1/C(=C\C=C2/CCC[C@]3(C)[C@@H]([C@H](C)CCCC(C)(C)O)CC[C@@H]23)C[C@@H](O)[C@@H](C)[C@H]1O`: the Relative potency in assay [4] was 1.5.

In assay [4], `C=C1/C(=C\C=C2/CCC[C@]3(C)[C@@H]([C@H](C)CCCC(C)(C)O)CC[C@@H]23)C[C@H](O)[C@H](C)[C@H]1O` registered a Relative potency of 0.5.

Turning to `C=C1/C(=C\C=C2/CCC[C@]3(C)[C@@H]([C@H](C)CCCC(C)(C)O)CC[C@@H]23)C[C@H](O)[C@@H](C)[C@H]1O`, the Relative potency in assay [4] is listed as 3.

Turning to `C=C1/C(=C\C=C2/CCC[C@]3(C)[C@@H]([C@H](C)CCCC(C)(C)O)CC[C@@H]23)C[C@@H](O)[C@@H](C)[C@@H]1O`, the Relative potency stood at 10 in assay [4] and 2 in assay [5].
